Assay results reported in patent publication US20240279207A1, “SUBSTITUTED ACYL SULFONAMIDES FOR TREATING CANCER” (The Broad Institute, Inc., priority 2020, published 2024).

Experiments:
[1] = tested on: ESR1 transcription in MVLN cells; assay: MVLN reporter assay: repression of ESR1 transcription (luciferase signal); assay type: cell-based; settings: Homo sapiens, MVLN, 24 h, luciferase signal after 24 h, read-out: MVLN reporter assay, IC50 [M] (arithmetic mean)
From the text: KAT6A controls transcription of the ESR1 gene in breast cancer cells. Compound treatment that interferes with this mechanism was quantified using MVLN cells. These cells constitutively express the ER and are stably transfected with the luciferase (LUC) reporter gene and the corresponding hormone responsive element derived from the 5′-flanking region of the Xenopus Vitellogenin A2 gene (Pons et al., 1990, Demirpense et al., 1993, Joyeux et al., 1993). The repressive effect on ERα transcription activity of a test chemical is directly related to the luciferase measured in the lysate of treated MVLN cells. […] Each sample was prepared as duplicate and rim wells were excluded. For luciferase signal determination 100 μl of a 1:1 mixture of Steadylite plus (Perkin Elmer; 6016759) and assay medium was added after 24 h for 15 minutes and measured in Victor X3 (Perkin Elmer). To exclude any effects caused by cell loss during the treatment, cell density was determined using Alamar Blue (Invitrogen; DAL1100). Prior to the luciferase measurement 10 μl Alamar Blue were added to each well and the plates were incubated for 2 h in the incubator. Then fluorescence was measured with Victor X3 (Perkin Elmer) at 530 nm/590 nm.

[2] = molecular target: T1, Recombinant human His-tagged Kat6a protein (amino acids 194-810) (Homo sapiens, UniProt Q92794); assay: Kat6a activity assay (TR-FRET, acetylation of Histone-H4-derived peptide); assay type: biochemical; settings: 60 mins at 22° C., 220 nM H4 peptide, 600 nM Acetyl Coenzyme A, read-out: KAT6A - DPF/HAT domain IC50 [mol/l] (arithmetic mean)
T1 construct: Kat6a protein (amino acids 194-810); His
Method: Kat6a inhibitory activities of the compounds described in the present invention were quantified using a Fluorescence Resonance Energy Transfer (TR-FRET) assay which measures acetylation of a synthetic, biotinylated Histone-H4-derived peptide by the enzyme.
In this case 50 nl DMSO were used instead of compounds. […] IC50 values were determined by regression analysis based on a 4 parameter equation (minimum, maximum, ICM, Hill; Y=Max+(Min−Max)/(1+(X/ICso) Hill) using the Screener Software (Genedata).

T1 sequence (Q92794 194-810): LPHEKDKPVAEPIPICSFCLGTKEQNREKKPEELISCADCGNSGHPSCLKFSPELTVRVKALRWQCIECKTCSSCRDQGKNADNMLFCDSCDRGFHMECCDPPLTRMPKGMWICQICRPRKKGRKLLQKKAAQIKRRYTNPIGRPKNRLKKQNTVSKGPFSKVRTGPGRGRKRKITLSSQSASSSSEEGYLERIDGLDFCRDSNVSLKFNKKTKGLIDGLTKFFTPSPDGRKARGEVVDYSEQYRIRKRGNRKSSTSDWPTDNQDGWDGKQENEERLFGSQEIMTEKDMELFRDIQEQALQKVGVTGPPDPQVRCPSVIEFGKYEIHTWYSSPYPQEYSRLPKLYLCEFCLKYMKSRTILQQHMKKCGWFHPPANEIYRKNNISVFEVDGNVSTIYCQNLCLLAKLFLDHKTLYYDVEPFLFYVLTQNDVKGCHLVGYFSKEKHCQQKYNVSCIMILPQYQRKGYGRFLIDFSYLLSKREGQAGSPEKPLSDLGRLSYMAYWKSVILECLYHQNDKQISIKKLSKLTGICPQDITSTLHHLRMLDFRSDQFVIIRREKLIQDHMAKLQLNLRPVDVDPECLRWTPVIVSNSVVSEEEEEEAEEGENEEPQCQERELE

Q: What does the source list for `O=C(NS(=O)(=O)c1ccnc2ccccc12)c1cc2c(F)cc(N3CC(F)C3)cc2o1` [Example 111, 4-Fluoro-6-(3-fluoroazetidin-1-yl)-N-(quinoline-4-sulfonyl)-1-benzofuran-2-carboxamide]?
A: IC50 [1]: > 2e-05 M; IC50 [2]: 3080 nM

Q: Which IC50 [1] does the source give for `CCNc1ccccc1S(=O)(=O)NC(=O)c1cc2c(F)cc(N3CCC3)cc2o1` [Example 46, 6-(azetidin-1-yl)-N-[2-(ethylamino)benzene-1-sulfonyl]-4-fluoro-1-benzofuran-2-carboxamide] here?
A: 1.15e-06 M

Q: What about the IC50 [2] of the same molecule?
A: 122 nM

Q: Which IC50 [1] does the source give for `COc1ccc(-c2cnn(C)c2)cc1S(=O)(=O)NC(=O)c1cc2c(F)cc(N3CCC3)cc2o1` [Example 199, 6-(Azetidin-1-yl)-4-fluoro-N-[2-methoxy-5-(1-methyl-1H-pyrazol-4-yl)benzene-1-sulfonyl]-1-benzofuran-2-carboxamide] here?
A: 5.49e-07 M

Q: And the IC50 [2]?
A: 32.3 nM

Q: `CC1(C)COc2ccc(S(=O)(=O)NC(=O)c3cc4c(F)cc(N5CCC5)cc4o3)cc21` [Example 190, 6-(Azetidin-1-yl)-N-(3,3-dimethyl-2,3-dihydro-1-benzofuran-5-sulfonyl)-4-fluoro-1-benzofuran-2-carboxamide] was tested. Which IC50 [1] did it give?
A: 1.93e-07 M

Q: What about the IC50 [2] of the same molecule?
A: 72.9 nM

Q: What does the source list for `CC(C)c1cc(Br)ccc1S(=O)(=O)NC(=O)c1cc2c(F)cc(N3CCC3)cc2o1` [Example 38, 6-(Azetidin-1-yl)-N-[4-bromo-2-(propan-2-yl)benzene-1-sulfonyl]-4-fluoro-1-benzofuran-2-carboxamide]?
A: IC50 [1]: 7.07e-07 M; IC50 [2]: 85.5 nM

Q: `CCOc1c(F)cccc1S(=O)(=O)NC(=O)c1cc2c(F)cc(N3CCC3)cc2o1` [Example 206, 6-(azetidin-1-yl)-N-(2-ethoxy-3-fluoro-phenyl)sulfonyl-4-fluoro-benzofuran-2-carboxamide] was tested. Which IC50 [1] did it give?
A: 4.44e-07 M

Q: And the IC50 [2]?
A: 110 nM

Q: How did the IC50 [1] turn out when `Cc1noc(-c2ccccc2S(=O)(=O)NC(=O)c2cc3c(F)cc(N4CCC4)cc3o2)n1` [Example 37, 6-(Azetidin-1-yl)-4-fluoro-N-[2-(3-methyl-1,2,4-oxadiazol-5-yl)benzene-1-sulfonyl]-1-benzofuran-2-carboxamide] was run?
A: 7.04e-07 M

Q: And the IC50 [2]?
A: 181 nM

Q: What does the source list for `O=C(NS(=O)(=O)c1cnn2c1OCCC2)c1cc2c(F)cc(N3CCC3)cc2o1` [Example 184, 6-(Azetidin-1-yl)-N-(6,7-dihydro-5H-pyrazolo[5,1-b][1,3]oxazine-3-sulfonyl)-4-fluoro-1-benzofuran-2-carboxamide]?
A: IC50 [1]: 5.21e-06 M; IC50 [2]: 294 nM

Q: With `CCOc1ccc(Oc2ccccc2)cc1S(=O)(=O)NC(=O)c1cc2c(F)cc(N3CCC3)cc2o1` [Example 211, 6-(Azetidin-1-yl)-N-(2-ethoxy-5-phenoxy-phenyl)sulfonyl-4-fluoro-benzofuran-2-carboxamide] as the molecule, how does the IC50 [1] read?
A: 2.44e-07 M

Q: And the IC50 [2]?
A: 7.58 nM

Q: What does the source list for `O=C(NS(=O)(=O)c1ncccc1Br)c1cc2c(F)cc(N3CCC3)cc2o1` [Example 69, 6-(Azetidin-1-yl)-N-(3-bromopyridine-2-sulfonyl)-4-fluoro-1-benzofuran-2-carboxamide]?
A: IC50 [1]: 1.56e-05 M; IC50 [2]: 325 nM

Q: For `O=C(NS(=O)(=O)c1cc(O)cc2ccccc12)c1cc2c(F)cc(N3CCC3)cc2o1` [Example 71, 6-(Azetidin-1-yl)-4-fluoro-N-(3-hydroxynaphthalene-1-sulfonyl)-1-benzofuran-2-carboxamide], which IC50 [1] is on record?
A: 1.72e-05 M

Q: And the IC50 [2]?
A: 84.3 nM

Q: With `O=C(NS(=O)(=O)c1ccccc1C1=NOCCO1)c1cc2c(F)cc(N3CCC3)cc2o1` [Example 96, 6-(Azetidin-1-yl)-N-[2-(5,6-dihydro-1,4,2-dioxazin-3-yl)benzene-1-sulfonyl]-4-fluoro-1-benzofuran-2-carboxamide] as the molecule, how does the IC50 [1] read?
A: > 2e-05 M

Q: What about the IC50 [2] of the same molecule?
A: 6250 nM

Q: Which IC50 [1] does the source give for `CCc1cccc(OCc2ccccc2)c1S(=O)(=O)NC(=O)c1cc2c(F)cc(N3CCC3)cc2o1` [Example 85, 6-(Azetidin-1-yl)-N-[2-(benzyloxy)-6-ethylbenzene-1-sulfonyl]-4-fluoro-1-benzofuran-2-carboxamide] here?
A: 3.1e-07 M

Q: And the IC50 [2]?
A: 45.7 nM

Q: Which results are given for `COCCOc1ccc(Cl)c(S(=O)(=O)NC(=O)c2cc3c(F)cc(N4CCC4)cc3o2)c1` [Example 59, 6-(Azetidin-1-yl)-N-[2-chloro-5-(2-methoxyethoxy)benzene-1-sulfonyl]-4-fluoro-1-benzofuran-2-carboxamide]?
A: IC50 [1]: 4.29e-06 M; IC50 [2]: 208 nM

Q: Which results are given for `CC(C)N(C)c1ccc(S(=O)(=O)NC(=O)c2cc3c(F)cc(N4CC(F)C4)cc3o2)c(F)c1F` [Example 166, N-{2,3-difluoro-4-[methyl(propan-2-yl)amino]benzene-1-sulfonyl}-4-fluoro-6-(3-fluoroazetidin-1-yl)-1-benzofuran-2-carboxamide]?
A: IC50 [1]: 7.22e-06 M; IC50 [2]: 362 nM

Q: `O=C(NS(=O)(=O)c1ccccc1I)c1cc2c(F)cc(N3CCC3)cc2o1` [Example 22, 6-(Azetidin-1-yl)-4-fluoro-N-(2-iodobenzene-1-sulfonyl)-1-benzofuran-2-carboxamide] was tested. Which IC50 [1] did it give?
A: 3.19e-07 M

Q: What about the IC50 [2] of the same molecule?
A: 34 nM

Q: With `NS(=O)(=O)c1cc(COC(=O)c2cc3c(F)cc(N4CCC4)cc3o2)ccc1OC(F)(F)F` [Example 93, [3-sulfamoyl-4-(trifluoromethoxy)phenyl]methyl 6-(azetidin-1-yl)-4-fluoro-1-benzofuran-2-carboxylate] as the molecule, how does the IC50 [1] read?
A: > 2e-05 M

Q: What about the IC50 [2] of the same molecule?
A: 1160 nM

Q: `Cc1ccnc2c1c(S(=O)(=O)NC(=O)c1cc3c(F)cc(N4CCC4)cc3o1)nn2C` [Example 146, 6-(Azetidin-1-yl)-N-(1,4-dimethyl-1H-pyrazolo[3,4-b]pyridine-3-sulfonyl)-4-fluoro-1-benzofuran-2-carboxamide] was tested. Which IC50 [1] did it give?
A: 2.83e-06 M

Q: What about the IC50 [2] of the same molecule?
A: 290 nM

Q: How did the IC50 [1] turn out when `CN(C)S(=O)(=O)c1ccc(Cl)c(S(=O)(=O)NC(=O)c2cc3c(F)cc(N4CCC4)cc3o2)c1` [Example 72, 6-(Azetidin-1-yl)-N-[2-chloro-5-(dimethylsulfamoyl)benzene-1-sulfonyl]-4-fluoro-1-benzofuran-2-carboxamide] was run?
A: 1.89e-05 M

Q: What about the IC50 [2] of the same molecule?
A: 159 nM

Q: `COC(=O)/C=C/c1ccccc1S(=O)(=O)NC(=O)c1cc2c(F)cc(N3CCC3)cc2o1` [Example 74, Methyl (2E)-3-(2-{[6-(azetidin-1-yl)-4-fluoro-1-benzofuran-2-carbonyl]sulfamoyl}phenyl)prop-2-enoate] was tested. Which IC50 [1] did it give?
A: 2.56e-06 M

Q: And the IC50 [2]?
A: 89.8 nM

Q: With `COc1ccc(S(=O)(=O)NC(=O)c2cc3c(F)cc(N4CCC4)cc3o2)c2c1CCCC2` [Example 180, 6-(Azetidin-1-yl)-4-fluoro-N-(4-methoxy-5,6,7,8-tetrahydronaphthalene-1-sulfonyl)-1-benzofuran-2-carboxamide] as the molecule, how does the IC50 [1] read?
A: 6.28e-07 M

Q: What about the IC50 [2] of the same molecule?
A: 35.9 nM

Q: For `COC(=O)Nc1cccc2c(S(=O)(=O)NC(=O)c3cc4c(F)cc(N5CCC5)cc4o3)cccc12` [Example 192, Methyl (5-{[6-(azetidin-1-yl)-4-fluoro-1-benzofuran-2-carbonyl]sulfamoyl}naphthalen-1-yl)carbamate], which IC50 [1] is on record?
A: > 2e-05 M

Q: What about the IC50 [2] of the same molecule?
A: 2000 nM

Q: Which IC50 [1] does the source give for `O=C(NS(=O)(=O)c1c(F)cccc1OC1CCC1)c1cc2c(F)cc(N3CCC3)cc2o1` [Example 16, 6-(Azetidin-1-yl)-N-[2-(cyclobutyloxy)-6-fluorobenzene-1-sulfonyl]-4-fluoro-1-benzofuran-2-carboxamide] here?
A: 1.69e-07 M

Q: And the IC50 [2]?
A: 43.5 nM

Q: How did the IC50 [1] turn out when `CCC(=O)Nc1cccc2c(S(=O)(=O)NC(=O)c3cc4c(F)cc(N5CCC5)cc4o3)cccc12` [Example 89, 6-(Azetidin-1-yl)-4-fluoro-N-(5-propanamidonaphthalene-1-sulfonyl)-1-benzofuran-2-carboxamide] was run?
A: > 2e-05 M

Q: What about the IC50 [2] of the same molecule?
A: 269 nM

Q: For `CC(C)N(C)c1cc(F)cc(F)c1S(=O)(=O)NC(=O)c1cc2c(F)cc(N3CC(F)C3)cc2o1` [Example 165, N-{2,4-difluoro-6-[methyl(propan-2-yl)amino]benzene-1-sulfonyl}-4-fluoro-6-(3-fluoroazetidin-1-yl)-1-benzofuran-2-carboxamide], which IC50 [1] is on record?
A: 8.64e-07 M

Q: And the IC50 [2]?
A: 318 nM

Q: For `CCOc1cccc(C)c1S(=O)(=O)NC(=O)c1cc2c(F)cc(N3CCC3)cc2o1` [Example 25, 6-(Azetidin-1-yl)-N-(2-ethoxy-6-methylbenzene-1-sulfonyl)-4-fluoro-1-benzofuran-2-carboxamide], which IC50 [1] is on record?
A: 3.26e-07 M

Q: And the IC50 [2]?
A: 148 nM

Q: What does the source list for `O=C(NS(=O)(=O)c1cccc2cnccc12)c1cc2c(F)cc(N3CCC3)cc2o1` [Example 187, 6-(Azetidin-1-yl)-4-fluoro-N-(isoquinoline-5-sulfonyl)-1-benzofuran-2-carboxamide]?
A: IC50 [1]: 1.85e-05 M; IC50 [2]: 1530 nM

Q: Which results are given for `CCCOc1cccc(CCC)c1S(=O)(=O)NC(=O)c1cc2c(F)cc(N3CCC3)cc2o1` [Example 31, 6-(Azetidin-1-yl)-4-fluoro-N-(2-propoxy-6-propylbenzene-1-sulfonyl)-1-benzofuran-2-carboxamide]?
A: IC50 [1]: 5.02e-07 M; IC50 [2]: 34.9 nM
